Data taken from ChEMBL document CHEMBL5356986, “Research status of indole-modified natural products” (RSC Med Chem, 2023).
In brackets after ≈: the same amount, converted by molar mass.

Experiments:
SGC-7901 = experiment: Cytotoxicity against human SGC-7901 cells assessed as reduction in cell viability measured after 48 hrs by MTT colorimetric assay; type: functional, cell-based; conditions: SGC-7901, 48 h
HepG2 [1] = experiment: Cytotoxicity against human HepG2 cells assessed as cell growth inhibition; type: functional, cell-based
HepG2 [2] = experiment: Cytotoxicity against human HepG2 cells assessed as reduction in cell viability measured after 48 hrs by MTT colorimetric based assay; type: functional; conditions: HepG2, 48 h
Candida albicans = experiment: Antibacterial activity against Candida albicans assessed as reduction in bacterial growth; type: functional
Bacillus subtilis = experiment: Antibacterial activity against Bacillus subtilis assessed as reduction in microbial growth; type: functional
Escherichia coli = experiment: Antibacterial activity against Escherichia coli assessed as reduction in bacterial cell viability; type: functional
Aspergillus niger = experiment: […] against Aspergillus niger assessed as […] incubated for 24 hrs by agar disc diffusion assay; type: functional
Klebsiella pneumoniae = experiment: Antibacterial activity against Klebsiella pneumoniae assessed as reduction in bacterial growth by broth microdilution method; type: functional
Staphylococcus aureus = experiment: Antibacterial activity against Staphylococcus aureus assessed as reduction in microbial growth; type: functional
Fusarium oxysporum = experiment: Antifungal activity against Fusarium oxysporum assessed as inhibition of fungal growth; type: functional
RAW264.7 = experiment: Anti-inflammatory activity in mouse RAW264.7 cells assessed as inhibition of LPS-induced NO production; type: functional, cell-based
HOP-92 = experiment: Growth inhibition against human HOP-92 cells incubated for 48 hrs by sulforhodamine B assay; type: functional
MCF7 [3] = experiment: Antiproliferative activity against human MCF7 cells assessed as inhibition of cell growth by CCK8 assay; type: functional, cell-based
MDA-MB-453 = experiment: Antiproliferative activity against human MDA-MB-453 cells assessed as inhibition of cell growth incubated for 48 hrs by MTT assay; type: functional, cell-based; conditions: MDA-MB-453, 48 h
MDA-MB-231 = experiment: Antiproliferative activity against human MDA-MB-231 cells assessed as reduction in cell viability incubated for 48 hrs by MTT assay; type: functional, cell-based; conditions: MDA-MB-231, 48 h
Leishmania donovani = experiment: Antileishmanial activity against Leishmania donovani assessed as parasite growth inhibition; type: functional, organism-based
[4] = Antioxidant activity assessed as DPPH radical scavenging activity; type: functional
SMMC-7721 = experiment: Cytotoxicity against human SMMC-7721 cells assessed as reduction in cell viability by SRB assay; type: functional, cell-based
Hep 3B2 = experiment: Cytotoxicity against human Hep3B cells assessed as cell growth inhibition by MTT colorimetric assay; type: functional, cell-based
HepG2 [5] = experiment: Cytotoxicity against human HepG2 cells assessed as reduction in cell viability by MTT assay; type: functional
Acetylcholinesterase = Acetylcholinesterase (Homo sapiens, UniProt P22303); experiment: Inhibition of Acetylcholinesterase (unknown origin)
HeLa [6] = experiment: Cytotoxicity against human HeLa cells assessed as cell growth inhibition incubated for 24 hrs by MTT assay; type: functional, cell-based
HepG2 [7] = experiment: Antiproliferative activity against human HepG2 cells assessed as reduction in cell viability incubated for 48 hrs by MTT assay; type: functional, cell-based; conditions: HepG2, 48 h
Mu-type opioid receptor = Mu-type opioid receptor (Homo sapiens, UniProt P35372); experiment: Inhibition of mu opioid receptor (unknown origin)
[8] = Cytotoxicity against mouse RAW264.7 cells assessed as reduction in cell viability incubated for 48 hrs by MTT assay; type: toxicity, cell-based
Alpha glucosidase = Alpha glucosidase (Homo sapiens, UniProt O43451+P10253+P14410+Q2M2H8); experiment: Inhibition of Alpha-glucosidase (unknown origin) using p-nitrophenyl glucopyranoside as substrate by UV based microplate reader analysis; type: protein assay
HCT-116 = experiment: Antiproliferative activity against human HCT-116 cells assessed as inhibition of cell growth; type: functional, cell-based
[9] = Inhibition of hyaluronidase (unknown origin); parameters: species or system Homo sapiens
A549 [10] = experiment: Antiproliferative activity against human A549 cells assessed as reduction in cell growth incubated for 72 hrs by MTT assay; type: functional, cell-based; conditions: A549, 72 h
HeLa [11] = experiment: Antiproliferative activity against human HeLa cells assessed as reduction in cell growth; type: functional, cell-based
A549 [12] = experiment: Antiproliferative activity against human A549 cells assessed as reduction in cell viability incubated for 48 hrs by MTT assay; type: functional, cell-based; conditions: A549, 48 h
MCF7 [13] = experiment: Antiproliferative activity against human MCF7 cells assessed as reduction in cell viability incubated for 120 hrs by MTT assay; type: functional, cell-based; conditions: MCF7, 120 h
K562 = experiment: Antiproliferative activity against human K562 cells assessed as cell growth inhibition by MTT assay; type: functional, cell-based
A549 [14] = experiment: Cytotoxicity against human A549 cells assessed as reduction in cell viability by MTS assay; type: functional, cell-based
A549 [15] = experiment: Antiproliferative activity against human A549 cells assessed as reduction in cell viability by MTT assay; type: functional, cell-based
Toxoplasma gondii = experiment: Antiparasitic activity against Toxoplasma gondii tachyzoites infected in human HeLa cells measured after 24 hrs by MTT assay; type: functional, organism-based
MCF7 [16] = experiment: Cytotoxicity against human MCF7 cells assessed as reduction in cell viability after 48 hrs by SRB assay; type: functional, cell-based; conditions: MCF7, 48 h
Arthrodermataceae = experiment: Antibacterial activity against Arthrodermataceae; type: functional
Nannizzia gypsea = experiment: Antifungal activity against Microsporum gypseum assessed as fungal growth inhibition; type: functional
[17] = tested on: Trichophyton mentagrophytes; experiment: Antifungal activity against Trichophyton mentagrophytes assessed as inhibition of microbial growth; type: functional
HepG2 [18] = experiment: Cytotoxicity against human HepG2 cells by MTT assay; type: functional, cell-based

Sequence of Mu-type opioid receptor (P35372 whole entry): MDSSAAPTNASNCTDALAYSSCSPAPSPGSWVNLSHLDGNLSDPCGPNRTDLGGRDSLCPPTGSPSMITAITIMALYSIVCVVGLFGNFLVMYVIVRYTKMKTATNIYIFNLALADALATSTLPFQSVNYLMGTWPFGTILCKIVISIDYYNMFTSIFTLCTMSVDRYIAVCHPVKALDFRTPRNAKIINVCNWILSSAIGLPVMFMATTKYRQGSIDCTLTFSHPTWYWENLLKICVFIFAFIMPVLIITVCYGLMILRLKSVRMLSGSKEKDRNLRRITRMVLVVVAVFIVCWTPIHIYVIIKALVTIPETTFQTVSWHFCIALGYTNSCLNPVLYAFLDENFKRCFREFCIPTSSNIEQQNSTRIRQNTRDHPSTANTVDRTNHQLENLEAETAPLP
Sequence of Acetylcholinesterase (P22303 whole entry): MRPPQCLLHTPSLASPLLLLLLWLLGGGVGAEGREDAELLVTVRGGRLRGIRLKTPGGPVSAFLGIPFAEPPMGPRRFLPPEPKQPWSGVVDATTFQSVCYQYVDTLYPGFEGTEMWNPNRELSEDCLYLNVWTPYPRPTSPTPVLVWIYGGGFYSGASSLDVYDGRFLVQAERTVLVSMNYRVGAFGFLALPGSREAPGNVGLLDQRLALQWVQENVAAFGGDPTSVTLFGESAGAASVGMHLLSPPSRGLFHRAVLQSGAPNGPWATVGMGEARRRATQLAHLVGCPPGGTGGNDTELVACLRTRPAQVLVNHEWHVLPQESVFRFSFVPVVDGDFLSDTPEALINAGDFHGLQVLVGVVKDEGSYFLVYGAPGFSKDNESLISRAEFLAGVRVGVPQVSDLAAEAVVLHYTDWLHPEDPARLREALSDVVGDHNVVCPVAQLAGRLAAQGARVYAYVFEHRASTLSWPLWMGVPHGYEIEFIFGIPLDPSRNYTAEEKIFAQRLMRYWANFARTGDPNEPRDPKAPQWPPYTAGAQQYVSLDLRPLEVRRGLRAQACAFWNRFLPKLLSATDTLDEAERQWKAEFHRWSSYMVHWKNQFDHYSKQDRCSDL

Structure (SMILES): CC(C)COC(=O)[C@]12CC[C@@H](C)[C@H](C)[C@H]1C1=CC(=O)[C@@H]3[C@@]4(C)Cc5c([nH]c6ccc(Cl)cc56)C(C)(C)[C@@H]4CC[C@@]3(C)[C@]1(C)CC2
- IC50 (SGC-7901): 3.12 µM
- IC50 (HepG2 [1]): 3.12 µM
- IC50 (HepG2 [2]): 3.12 µM

Structure (SMILES): NC(Cc1c[nH]c2ccccc12)C(=O)Oc1ccc2c(=O)c3ccccc3oc2c1 (centres undefined)
- MIC (Candida albicans): 20 µg/mL (≈ 50.2 µM)
- MIC (Bacillus subtilis): 16 µg/mL
- MIC (Escherichia coli): 15 µg/mL (≈ 37.6 µM)
- MIC (Aspergillus niger): 21 µg/mL (≈ 52.7 µM)
- MIC (Klebsiella pneumoniae): 22 µg/mL (≈ 55.2 µM)
- MIC (Staphylococcus aureus): 16 µg/mL
- MIC (Fusarium oxysporum): 20 µg/mL (≈ 50.2 µM)
- IC50 (RAW264.7): 26 µg/mL (≈ 65.3 µM)

Structure (SMILES): Cc1cc(=O)oc2c(C)c(O)c(-c3cc4ccc(F)cc4[nH]3)cc12
- GI50 (HOP-92): 0.95 µM

Structure (SMILES): C[C@]12CC[C@H]3[C@@H](CC=C4C[C@@H](O)CC[C@@H]43)[C@@H]1CC/C2=N\N=C\c1c[nH]c2ccccc12
- IC50 (MCF7 [3]): 1.06 µM
- IC50 (MDA-MB-453): 0.01 µM
- IC50 (MDA-MB-231): 0.00481 µM

Structure (SMILES): O=C(CCC(c1c(Cl)cccc1Cl)c1c[nH]c2ccccc12)c1c(O)c2ccccc2oc1=O (centres undefined)
- IC50 (Leishmania donovani): 95 µg/mL (≈ 193 µM)
- IC50 [4]: 13.5 µM

Structure (SMILES): CCOC(=O)c1ccc2c(c1)c1c(n2CCN2CCNCC2)-c2cc(C(C)C)ccc2[C@@]2(C)CCC[C@@](C)(C(=O)OC)[C@H]12
- IC50 (SMMC-7721): < 1.39 µM
- IC50 (Hep 3B2): < 0.73 µM
- IC50 (HepG2 [5]): 0.51 µM

Structure (SMILES): O=C1Cc2cc(OCc3ccc(F)cc3)ccc2C=C1C(=O)NCCc1c[nH]c2ccccc12
- IC50 (Acetylcholinesterase): 0.16 µM

Structure (SMILES): CC(C)[C@@H](C)/C=C/[C@@H](C)[C@H]1CC[C@@H]2[C@]1(C)CC[C@H]1[C@]23C=C[C@]2(C[C@@H](O)CC[C@]12C)OO3 [ERGOSTEROL PEROXIDE]
- IC50 (HeLa [6]): 19.5 µM
- IC50 (MCF7 [3]): 18 µM
- IC50 (HepG2 [7]): 23.4 µM

Structure (SMILES): O=C(CCC(c1ccccc1)c1c[nH]c2ccccc12)c1c(O)c2ccccc2oc1=O (centres undefined)
- IC50 (Leishmania donovani): 95.5 µg/mL (≈ 226 µM)
- IC50 [4]: 12.4 µM

Structure (SMILES): O=C(N[C@@H]1CC[C@@]2(O)[C@H]3Cc4ccc(O)c5c4[C@@]2(CCN3CC2CC2)[C@H]1O5)c1cc2ccccc2[nH]1
- IC50 (Mu-type opioid receptor): 0.00021 µM

Structure (SMILES): C=C(C)[C@@H]1CC[C@]2(C)CC[C@]3(C)[C@H](CC[C@@H]4[C@@]5(C)Cc6c([nH]c7cc(I)ccc67)C(C)(C)[C@@H]5CC[C@]43C)[C@@H]12
- IC50 at 48 h [8]: 22.6 µM

Structure (SMILES): C=C(C)[C@@H](C)CC[C@@H](C)[C@H]1CC[C@@]2(C)[C@@H]3CC[C@H]4[C@H](C)C(=O)CC[C@@]45C[C@@]35CC[C@]12C
- IC50 (Alpha glucosidase): 603.8 µM

Structure (SMILES): COc1cc(C(=O)/C(C)=C/c2c[nH]c3cc(F)ccc23)cc(OC)c1OCCN
- IC50 (HCT-116): 0.0032 µM

Structure (SMILES): CC1(C)CC[C@]2(C(=O)O)CC[C@]3(C)C(=CC[C@@H]4[C@@]5(C)Cc6c([nH]c7c(F)cc(F)cc67)C(C)(C)[C@@H]5CC[C@]43C)[C@@H]2C1
- IC50 [9]: 9.97 µM

Structure (SMILES): COc1cc([C@@H]2c3cc4c(cc3[C@@H](O[C@@H]3O[C@@H]5CO[C@@H](C)O[C@H]5[C@H](O)[C@H]3O)[C@H]3COC(=O)[C@H]23)OCO4)cc(OC)c1O [ETOPOSIDE]
- IC50 (A549 [10]): 9.9 µM
- IC50 (HeLa [11]): 2.56 µM
- IC50 (A549 [12]): 2.27 µM
- IC50 (MCF7 [13]): 2.56 µM
- IC50 (K562): 1.72 µM

Structure (SMILES): CC(C)=CCC[C@](C)(O)[C@H]1CC[C@@](C)([C@H]2CC[C@H]3[C@H]2CC[C@H]2C(C)(C)c4[nH]c5ccc(Br)cc5c4C[C@]32C)O1
- IC50 (A549 [14]): 13.4 µM

Structure (SMILES): C[C@@H]1CC[C@H]2[C@@H](C)C(OC(=O)c3cc4cc(Cl)ccc4[nH]3)O[C@@H]3O[C@@]4(C)CC[C@@H]1[C@]32OO4 (some centres undefined)
- IC50 (A549 [15]): 6.17 µM
- IC50 (Toxoplasma gondii): 85.3 µM
- IC50 (MCF7 [16]): 5.25 µM

Structure (SMILES): COc1ccc(/C=C/C(=O)c2cn(C)c3ccccc23)cc1
- MIC (Arthrodermataceae): 4 µg/mL (≈ 13.7 µM)
- MIC (Nannizzia gypsea): 1 µg/mL (≈ 3.43 µM)
- MIC [17]: 8 µg/mL

Structure (SMILES): CC(=O)Oc1ccc(C(=O)/C=C/c2ccc3c(ccn3C)c2)c2c1C=CC(C)(C)O2
- IC50 (HepG2 [18]): 0.22 µM
